Patent US20080096894A1, “Anti-Bacterial Compounds” (ASTON UNIVERSITY, priority 2005, published 2008)
In brackets after ≈: the same amount, converted by molar mass. Where two headings read alike, the source gives them in different places.

Legend:
Assay in all cases: MIC, agar dilution, multipoint inoculator
MRSA = format: cell-based, methicillin-resistant Staphylococcus aureus
Experimental: (§1) This activity was measured using a multipoint inoculator method as follows. The MIC for each compound was measured using an agar dilution method (Onda, H., et al., Int. J. Antimicrob. Agents. 18, 263 (2001)) (Mueller Hinton agar) by means of a multipoint inoculator delivering 10^4 colony forming units per spot.
‘Staph’ refers to the reference strain of S. aureus (NCTC 6571). A tick in the MRSA column refers to a positive zone against MRSA strain 96-7474, and the MIC range (in μg/ml) which follows is that found against a panel of ten MRSA strains. Where MIC values are given for MRSA, these are stated as a range of values, as testing was carried out on a panel of clinical isolates.

S. aureus = format: cell-based, Staphylococcus aureus; details: upper value of MIC reading
Experimental: as §1

E. faecium = format: cell-based, Enterococcus faecium; details: upper value of MIC reading
Experimental: as §1

P. auriginosa = format: cell-based, Pseudomonas aeruginosa; details: P. auriginosa NCTC 6749, upper value of MIC reading
Experimental: as §1

S. epidemisis = format: cell-based, Staphylococcus epidermidis; details: upper value of MIC reading
Experimental: as §1

E. coli = format: cell-based, Escherichia coli; details: Escherichia coli, 18 h, upper value of MIC reading
Experimental: as §1

S. haemolyticus = format: cell-based; details: S. haemolyticus Isolate 1, upper value of MIC reading
Experimental: as §1

E. faecalis = format: cell-based; details: upper value of MIC reading
Experimental: as §1

S. maltophilia = format: cell-based; details: S. maltophilia NCTC 10257, upper value of MIC reading
Experimental: as §1

S. marcesens = format: cell-based, Serratia marcescens; details: S. marcesens 4444, upper value of MIC reading
Experimental: as §1

S. aboni = format: cell-based; details: S. aboni NCTC 6017; upper value of MIC reading
Experimental: as §1

E. cloacae = format: cell-based, Enterobacter cloacae; details: E. cloacae NCTC 11582; upper value of MIC reading
Experimental: as §1

K. pneumoniae = format: cell-based, Klebsiella pneumoniae; details: K. pneumoniae 327; upper value of MIC reading
Experimental: as §1

B. bronchiseptica = format: cell-based; details: B. bronchiseptica NCTC 8344; upper value of MIC reading
Experimental: as §1

[1] = MRSA Isolate 1, upper value of MIC reading, in µg/mL
[2] = MRSA Isolate 2, upper value of MIC reading, in µg/mL
[3] = MRSA Isolate 3, upper value of MIC reading, in µg/mL
[4] = MRSA Isolate 4, upper value of MIC reading, in µg/mL
[5] = MRSA Isolate 5, upper value of MIC reading, in µg/mL
[6] = MRSA Isolate 6, upper value of MIC reading, in µg/mL
[7] = MRSA Isolate 7, upper value of MIC reading, in µg/mL
[8] = MRSA Isolate 8, upper value of MIC reading, in µg/mL
[9] = MRSA Isolate 9, upper value of MIC reading, in µg/mL
[10] = MRSA Isolate 10, upper value of MIC reading, in µg/mL
[11] = panel of ten MRSA strains (clinical isolates)

Compound: CCC(C)(C)c1ccc(/C=N/N=C(\N)c2cccnc2)cc1 [Compound 3PYaf, N^1-[4-(1,1-dimethylpropyl)benzylidene]-pyridine-3-carboxamidrazone]
- MIC (MRSA; Staphylococcus aureus, 18 h, MRSA Isolate 1, upper value of MIC reading, read-out: MIC): 64 µg/mL (≈ 217 µM)
- MIC (MRSA; Staphylococcus aureus, 18 h, MRSA Isolate 2, upper value of MIC reading, read-out: MIC): 64 µg/mL (≈ 217 µM)
- MIC (MRSA; Staphylococcus aureus, 18 h, MRSA Isolate 3, upper value of MIC reading, read-out: MIC): 64 µg/mL (≈ 217 µM)
- MIC (MRSA; Staphylococcus aureus, 18 h, MRSA Isolate 4, upper value of MIC reading, read-out: MIC): 64 µg/mL (≈ 217 µM)
- MIC (MRSA; Staphylococcus aureus, 18 h, MRSA Isolate 5, upper value of MIC reading, read-out: MIC): 64 µg/mL (≈ 217 µM)
- MIC (MRSA; Staphylococcus aureus, 18 h, MRSA Isolate 6, upper value of MIC reading, read-out: MIC): 64 µg/mL (≈ 217 µM)
- MIC (MRSA; Staphylococcus aureus, 18 h, MRSA Isolate 7, upper value of MIC reading, read-out: MIC): 64 µg/mL (≈ 217 µM)
- MIC (MRSA; Staphylococcus aureus, 18 h, MRSA Isolate 8, upper value of MIC reading, read-out: MIC): 64 µg/mL (≈ 217 µM)
- MIC (MRSA; Staphylococcus aureus, 18 h, MRSA Isolate 9, upper value of MIC reading, read-out: MIC): 64 µg/mL (≈ 217 µM)
- MIC (MRSA; Staphylococcus aureus, 18 h, MRSA Isolate 10, upper value of MIC reading, read-out: MIC): 64 µg/mL (≈ 217 µM)
- MIC (MRSA; Staphylococcus aureus, MRSA, 18 h, panel of ten MRSA strains (clinical isolates), read-out: MRSA MIC range): 32 to 64 µg/mL (≈ 109 to 217 µM)
- MIC (S. aureus; Staphylococcus aureus, 18 h, S. aureus Cowan 1, read-out: MIC): 64 µg/mL (≈ 217 µM)
- MIC (S. aureus; Staphylococcus aureus, NCTC6571, 18 h, S. aureus NCTC 6571, read-out: MIC): 64 µg/mL (≈ 217 µM)
- MIC (S. aureus; Staphylococcus aureus, NCTC10788, 18 h, S. aureus NCTC 10788, read-out: MIC): 64 µg/mL (≈ 217 µM)
- MIC (E. faecium; Enterococcus faecium, 18 h, E. faecium ACTCC 10541, read-out: MIC): 64 µg/mL (≈ 217 µM)
- MIC (E. faecium; Enterococcus faecium, NCTC7171, 18 h, E. faecium NCTC 7171, read-out: MIC): 64 µg/mL (≈ 217 µM)
- MIC (P. auriginosa; Pseudomonas aeruginosa, NCTC6749, 18 h, read-out: MIC): 64 µg/mL (≈ 217 µM)
- MIC (S. epidemisis; Staphylococcus epidermidis, 18 h, S. epidemisis Isolate 1, read-out: MIC): 128 µg/mL (≈ 435 µM)
- MIC (S. epidemisis; Staphylococcus epidermidis, NCTC11047, 18 h, S. epidemisis NCTC 11047, read-out: MIC): 32 µg/mL (≈ 109 µM)
- MIC (E. coli; E. coli W3110R+): 64 µg/mL (≈ 217 µM)
- MIC (E. coli; E. coli W3110R−): 64 µg/mL (≈ 217 µM)
- MIC (S. haemolyticus; Staphylococcus haemolyticus, 18 h, read-out: MIC): 64 µg/mL (≈ 217 µM)
- MIC (E. faecalis; Enterococcus faecalis, 18 h, E. faecalis EBH1, read-out: MIC): 128 µg/mL (≈ 435 µM)
- MIC (E. faecalis; Enterococcus faecalis, 18 h, E. faecalis Isolate 1, read-out: MIC): 64 µg/mL (≈ 217 µM)
- MIC (E. faecalis; Enterococcus faecalis, 18 h, E. faecalis Isolate 2, read-out: MIC): 64 µg/mL (≈ 217 µM)
- MIC (E. faecalis; Enterococcus faecalis, 18 h, E. faecalis Isolate 4, read-out: MIC): 128 µg/mL (≈ 435 µM)
- MIC (E. faecalis; Enterococcus faecalis, 18 h, E. faecalis Isolate 5, read-out: MIC): 128 µg/mL (≈ 435 µM)
- MIC (E. faecalis; Enterococcus faecalis, NCTC5957, 18 h, E. faecalis NCTC 5957, read-out: MIC): 64 µg/mL (≈ 217 µM)
- MIC (S. maltophilia; Stenotrophomonas maltophilia, NCTC10257, 18 h, read-out: MIC): 64 µg/mL (≈ 217 µM)
- MIC (S. marcesens; Serratia marcescens, 18 h, read-out: MIC): 256 µg/mL (≈ 870 µM)

Compound: NC(=NN=Cc1ccc(O)c(O)c1)c1ccc2ccccc2n1 [QNca]
- MIC (MRSA; [1]): 128
- MIC (MRSA; [2]): 128
- MIC (MRSA; [3]): 128
- MIC (MRSA; [4]): 128
- MIC (MRSA; [5]): 128
- MIC (MRSA; [6]): 128
- MIC (MRSA; [7]): 128
- MIC (MRSA; [8]): 128
- MIC (MRSA; [9]): 128
- MIC (MRSA; [10]): 128
- MRSA MIC range (MRSA; [11]): 64 to 128 µg/mL
- MIC (S. aureus; S. aureus Cowan 1): 128 µg/mL (≈ 418 µM)
- MIC (S. aureus; S. aureus NCTC 6571): 128 µg/mL (≈ 418 µM)
- MIC (S. aureus; S. aureus NCTC 10788): 128 µg/mL (≈ 418 µM)
- MIC (E. faecium; E. faecium ACTCC 10541): 256 µg/mL (≈ 836 µM)
- MIC (E. faecium; E. faecium NCTC 7171): 256 µg/mL (≈ 836 µM)
- MIC (P. auriginosa): 256 µg/mL (≈ 836 µM)
- MIC (S. epidemisis; S. epidemisis Isolate 1): 64 µg/mL (≈ 209 µM)
- MIC (S. epidemisis; S. epidemisis NCTC 11047): 64 µg/mL (≈ 209 µM)
- MIC (S. haemolyticus): 128 µg/mL (≈ 418 µM)
- MIC (E. faecalis; E. faecalis EBH1): 256 µg/mL (≈ 836 µM)
- MIC (E. faecalis; E. faecalis Isolate 1): 256 µg/mL (≈ 836 µM)
- MIC (E. faecalis; E. faecalis Isolate 2): 256 µg/mL (≈ 836 µM)
- MIC (E. faecalis; E. faecalis Isolate 3): 256 µg/mL (≈ 836 µM)
- MIC (E. faecalis; E. faecalis Isolate 4): 256 µg/mL (≈ 836 µM)
- MIC (E. faecalis; E. faecalis Isolate 5): 256 µg/mL (≈ 836 µM)
- MIC (E. faecalis; E. faecalis NCTC 5957): 256 µg/mL (≈ 836 µM)
- MIC (S. maltophilia): 256 µg/mL (≈ 836 µM)
- MIC (S. aboni): 256 µg/mL (≈ 836 µM)
- MIC (S. marcesens): 256 µg/mL (≈ 836 µM)
- MIC (E. cloacae): 32 µg/mL (≈ 104 µM)
- MIC (K. pneumoniae): 256 µg/mL (≈ 836 µM)

Compound: NC(=NN=Cc1c(O)ccc2ccccc12)c1cccnc1 [Compound 3PYdb]
- MIC (MRSA; [1]): 256
- MIC (MRSA; [2]): 256
- MIC (MRSA; [3]): 256
- MIC (MRSA; [4]): 256
- MIC (MRSA; [5]): 256
- MIC (MRSA; [6]): 256
- MIC (MRSA; [7]): 256
- MIC (MRSA; [8]): 256
- MIC (MRSA; [9]): 256
- MIC (MRSA; [10]): 256
- MRSA MIC range (MRSA; [11]): 128 to 256 µg/mL
- MIC (S. aureus; S. aureus Cowan 1): 256 µg/mL (≈ 882 µM)
- MIC (S. aureus; S. aureus NCTC 6571): 256 µg/mL (≈ 882 µM)
- MIC (S. aureus; S. aureus NCTC 10788): 256 µg/mL (≈ 882 µM)
- MIC (P. auriginosa): 256 µg/mL (≈ 882 µM)
- MIC (S. epidemisis; S. epidemisis Isolate 1): 256 µg/mL (≈ 882 µM)
- MIC (S. epidemisis; S. epidemisis NCTC 11047): 256 µg/mL (≈ 882 µM)
- MIC (S. haemolyticus): 256 µg/mL (≈ 882 µM)
- MIC (B. bronchiseptica): 256 µg/mL (≈ 882 µM)
- MIC (E. faecalis; E. faecalis Isolate 2): 256 µg/mL (≈ 882 µM)
- MIC (E. faecalis; E. faecalis Isolate 5): 256 µg/mL (≈ 882 µM)
- MIC (S. maltophilia): 266 µg/mL (≈ 916 µM)
- MIC (S. aboni): 32 µg/mL (≈ 110 µM)
- MIC (E. cloacae): 256 µg/mL (≈ 882 µM)
- MIC (K. pneumoniae): 256 µg/mL (≈ 882 µM)
